The source of these data is US10442796B2, “2,3,5-substituted thiophene compound as protein kinase inhibitor” (KOREA INSTITUTE OF SCIENCE AND TECHNOLOGY, priority 2016, dated 2019).

Test [1] deals with T1, FLT3-D835Y Ba/F3 cells (Homo sapiens, UniProt P36888, D835Y, cells depend on it).
T1 sequence (P36888 1-993 D835Y): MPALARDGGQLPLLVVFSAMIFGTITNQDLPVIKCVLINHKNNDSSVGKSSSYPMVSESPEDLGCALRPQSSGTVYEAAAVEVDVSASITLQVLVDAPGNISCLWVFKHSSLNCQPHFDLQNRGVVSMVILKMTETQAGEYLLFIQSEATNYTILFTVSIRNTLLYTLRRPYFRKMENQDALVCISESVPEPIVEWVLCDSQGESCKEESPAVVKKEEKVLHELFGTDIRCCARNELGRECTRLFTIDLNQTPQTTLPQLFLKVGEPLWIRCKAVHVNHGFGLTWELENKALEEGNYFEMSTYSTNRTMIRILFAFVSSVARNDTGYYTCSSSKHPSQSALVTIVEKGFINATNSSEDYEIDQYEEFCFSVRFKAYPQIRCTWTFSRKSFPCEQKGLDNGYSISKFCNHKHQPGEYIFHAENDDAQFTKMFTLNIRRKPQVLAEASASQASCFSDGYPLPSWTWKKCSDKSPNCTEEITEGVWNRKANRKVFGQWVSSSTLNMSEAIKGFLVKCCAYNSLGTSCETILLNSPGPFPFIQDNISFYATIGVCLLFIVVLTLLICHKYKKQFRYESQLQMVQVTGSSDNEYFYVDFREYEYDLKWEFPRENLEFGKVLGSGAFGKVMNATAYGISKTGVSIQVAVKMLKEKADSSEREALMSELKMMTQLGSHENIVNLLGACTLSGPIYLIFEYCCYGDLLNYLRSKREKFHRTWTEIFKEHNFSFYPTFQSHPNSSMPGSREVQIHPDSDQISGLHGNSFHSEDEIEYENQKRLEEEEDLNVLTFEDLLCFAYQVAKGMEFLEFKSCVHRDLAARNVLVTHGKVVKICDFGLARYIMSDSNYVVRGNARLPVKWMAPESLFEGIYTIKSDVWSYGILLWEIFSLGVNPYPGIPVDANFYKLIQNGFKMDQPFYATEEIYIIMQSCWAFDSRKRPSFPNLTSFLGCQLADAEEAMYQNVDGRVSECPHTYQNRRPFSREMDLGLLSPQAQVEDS
Kind of test: Growth inhibitory activity against Ba/F3 cell line. The conditions noted are these: Ba/F3 expressing FLT3-D835Y; 72 hours; cell titer glo; read-out: IC50 (uM) FLT3-D835Y. Format: cell-based. The method, then:
(§1) A Ba/F3 cell line expressing an FLT3 mutation gene was cultured in a culture solution including 90% RPMI, 10% FBS, and an antibiotic (Welgene). 100 uL of the Ba/F3 cell line was put into each of 5,000 wells of a TC-treated 96 well plate (SPL), and then 1 uL of a test compound diluted in dimethylsulfoxide (diluted for each 3 paint from a concentration of 1 mM, total 10 concentrations) was each injected thereinto. Thereafter, the resulting cell lines were incubated in a cell culture incubator for 72 hours. 50 uL of a cell titer glo (Promega) solution was added thereto, the resulting mixture was stored at room temperature for 10 minutes, and then the light emission intensity was measured by using a reader (Envision, PerkinElmer). The light emission intensity was shown as a graph for each final concentration of the test compound, and the GI50 value was obtained by using a Prism 5.0 (GraphPad) software.
A general note: ATP-based viability assays read luminescence as a measure of living cells.

The target of test [2] is T2, FLT3-ITD Ba/F3 cells (Homo sapiens, UniProt P36888, cells depend on it, form not given).
T2 sequence (P36888 1-993): T1 sequence (P36888 1-993 D835Y) with Y835D
Kind of test: Growth inhibitory activity against Ba/F3 cell line. Format: cell-based. The conditions noted are these: Ba/F3 expressing FLT3-ITD; 72 hours; cell titer glo; read-out: IC50 (uM) FLT3-ITD. How it is done: as §1

Substitutions are numbered along the chain they refer to. Where a name gives a salt, the structure may show the parent alone. Some results are limits rather than exact numbers.

As for `NC(=O)Nc1cc(C#Cc2cccc(F)c2)sc1C(=O)NC1CCNC1` (stereo not shown) [Example 40, 5-((3-fluorophenyl)ethynyl)-N-(pyrrolidin-3-yl)-3-ureidothiophene-2-carboxamide], the results for the GI50 in test [1] and in test [2] were 0.925 µM and 0.164 µM, respectively.

With `NC(=O)Nc1cc(C#Cc2cccc(F)c2)sc1C(=O)N[C@H]1CCCCNC1` [Example 50, (S)—N-(azepan-3-yl)-5-((3-fluorophenyl)ethynyl)-3-ureidothiophene-2-carboxamide], the GI50 worked out at 0.228 µM in test [1] and 0.023 µM in test [2].

As for `CC(C)n1cc(C#Cc2cc(NC(N)=O)c(C(=O)N[C@H]3CCCCNC3)s2)cn1` [Example 44, (S)—N-(azepan-3-yl)-5-((1-isopropyl-1H-pyrazol-4-yl)ethynyl)-3-ureidothiophene-2-carboxamide trifluoroacetate], the GI50 came to 0.216 µM in test [1] and 0.006 µM in test [2].

As to `NC(=O)Nc1cc(C#Cc2ccc(F)cc2)sc1C(=O)N[C@H]1CCCNC1` [Example 9, (S)-5-((4-fluorophenyl)ethynyl)-N-(piperidin-3-yl)-3-ureidothiophene-2-carboxamide], the GI50 was 0.003 µM in test [1] and < 0.001 µM in test [2].

Turning to `Cc1ccc(C#Cc2cc(NC(N)=O)c(C(=O)N[C@H]3CCCNC3)s2)cc1` [Example 24, (S)—N-(piperidin-3-yl)-5-(p-tolylethynyl)-3-ureidothiophene-2-carboxamide], the GI50 in test [1] came out at 0.039 µM; in test [2], 0.005 µM.

In the case of `CS(=O)(=O)N1CCC(n2cc(C#Cc3cc(NC(N)=O)c(C(=O)N[C@H]4CCCNC4)s3)cn2)CC1` [Example 23, (S)-5-((1-(1-(methylsulfonyl)piperidin-4-yl)-1H-pyrazol-4-yl)ethynyl)-N-(piperidin-3-yl)-3-ureidothiophene-2-carboxamide], the GI50 was 0.18 µM in test [1] and 0.007 µM in test [2].

For `Cn1cc(C#Cc2cc(NC(N)=O)c(C(=O)N[C@H]3CCCCNC3)s2)cn1` [Example 41, (S)—N-(azepan-3-yl)-5-((1-methyl-1H-pyrazol-4-yl)ethynyl)-3-ureidothiophene-2-carboxamide trifluoroacetate], the GI50 stood at 0.092 µM in test [1] and 0.013 µM in test [2].

For `NC(=O)Nc1cc(CCc2cccc(F)c2)sc1C(=O)N[C@H]1CCCNC1` [Example 53], the GI50 came to 1.61 µM in test [1] and 0.359 µM in test [2].

Consider `COCCn1cc(C#Cc2cc(NC(N)=O)c(C(=O)N[C@H]3CCCCNC3)s2)cn1` [Example 45, (S)—N-(azepan-3-yl)-5-((1-(2-methoxyethyl)-1H-pyrazol-4-yl)ethynyl)-3-ureidothiophene-2-carboxamide trifluoroacetate], for which the GI50 worked out at 0.841 µM in test [1] and 0.038 µM in test [2].

As to `NC(=O)Nc1cc(C#Cc2ccc(Cl)cc2)sc1C(=O)N[C@H]1CCCNC1` [Example 8, (S)-5-((4-chlorophenyl)ethynyl)-N-(piperidin-3-yl)-3-ureidothiophene-2-carboxamide], the GI50 in test [1] was 0.01 µM; in test [2] it was 0.001 µM.

Take `NC(=O)Nc1cc(C#Cc2cn[nH]c2)sc1C(=O)N[C@H]1CCCCNC1` [Example 42, (S)-5-((1H-pyrazol-4-yl)ethynyl)-N-(azepan-3-yl)-3-ureidothiophene-2-carboxamide trifluoroacetate]: the GI50 in test [1] was 4.01 µM; in test [2] it was 0.137 µM.

As to `NC(=O)Nc1cc(C#Cc2ccsc2)sc1C(=O)N[C@H]1CCCCNC1` [Example 48, (S)—N-(azepan-3-yl)-5-(thiophen-3-ylethynyl)-3-ureidothiophene-2-carboxamide trifluoroacetate], the GI50 amounted to 0.067 µM in test [1] and 0.005 µM in test [2].

Consider `Cn1cc(C#Cc2cc(NC(N)=O)c(C(=O)NC3CCNC3)s2)cn1` (stereo not shown) [Example 39, 5-((1-methyl-1H-pyrazol-4-yl)ethynyl)-N-(pyrrolidin-3-yl)-3-ureidothiophene-2-carboxamide trifluoroacetate], for which the figures for the GI50 in test [1] and in test [2] were 34 µM and 3.73 µM, respectively.

Regarding `COC(=O)c1ccc(C#Cc2cc(NC(N)=O)c(C(=O)N[C@H]3CCCNC3)s2)cc1` [Example 18, methyl (S)-4-((5-(piperidin-3-ylcarbamoyl)-4-ureidothiophen-2-yl)ethynyl)benzoate trifluoroacetate], the GI50 in test [1] amounted to 0.011 µM; in test [2], 0.003 µM.

As for `NC(=O)Nc1cc(C#Cc2ccc(C(F)(F)F)cc2)sc1C(=O)N[C@H]1CCCNC1` [Example 16, ((S)—N-(piperidin-3-yl)-5-((4-(trifluoromethyl)phenyl)ethynyl)-3-ureidothiophene-2-carboxamide trifluoroacetate], the GI50 in test [1] is 0.197 µM; in test [2], 0.006 µM.

On to `CS(=O)(=O)N1CCC(n2cc(C#Cc3cc(NC(N)=O)c(C(=O)N[C@H]4CCCCNC4)s3)cn2)CC1` [Example 47, (S)—N-(azepan-3-yl)-5-((1-(1-(methylsulfonyl)piperidin-4-yl)-1H-pyrazol-4-yl)ethynyl)-3-ureidothiophene-2-carboxamide trifluoroacetate], for which the GI50 was found to be 0.533 µM in test [1] and 0.027 µM in test [2].

`CCn1cc(C#Cc2cc(NC(N)=O)c(C(=O)N[C@H]3CCCCNC3)s2)cn1` [Example 43, (S)—N-(azepan-3-yl)-5-((l-ethyl-1H-pyrazol-4-yl)ethynyl)-3-ureidothiophene-2-carboxamide trifluoroacetate]: the GI50 in test [1] is 0.3 µM; in test [2] it was 0.01 µM.

In the case of `Cn1cc(C#Cc2cc(NC(N)=O)c(C(=O)N[C@H]3CCCNC3)s2)cn1` [Example 15, (S)-5-((l-methyl-1H-pyrazol-4-yl)ethynyl)-N-(piperidin-3-yl)-3-ureidothiophene-2-carboxamide trifluoroacetate], the values for the GI50 in test [1] and in test [2] were 0.268 µM and 0.028 µM, respectively.

`N#Cc1cccc(C#Cc2cc(NC(N)=O)c(C(=O)N[C@H]3CCCNC3)s2)c1` [Example 6, (S)-5-((3-cyanophenyl)ethynyl)-N-(piperidin-3-yl)-3-ureidothiophene-2-carboxamide]: the GI50 in test [1] was 0.041 µM; in test [2], < 0.005 µM.

As for `N#Cc1ccc(C#Cc2cc(NC(N)=O)c(C(=O)N[C@H]3CCCNC3)s2)cc1` [Example 11, (S)-5-((4-cyanophenyl)ethynyl)-N-(piperidin-3-yl)-3-ureidothiophene-2-carboxamide], the GI50 is 0.003 µM in test [1] and < 0.001 µM in test [2].
